Series [1] in a line: Fraction unbound in Sprague-Dawley rat brain homogenates at 1 uM after 6 hrs by equilibrium dialysis method. Particulars: brain homogenate.
A short description of series [2]: Fraction unbound in CD-1 mouse brain homogenates at 1 uM after 6 hrs by equilibrium dialysis method. Conditions: brain homogenate.
The nature of series [3]: Fraction unbound in Hartley guinea pig brain homogenates at 1 uM after 6 hrs by equilibrium dialysis method. Conditions: brain homogenate.
The nature of series [4]: Fraction unbound in cynomolgus monkey brain homogenates at 1 uM after 6 hrs by equilibrium dialysis method. Conditions: brain homogenate. (In general: In equilibrium dialysis free small molecules cross a membrane that holds back macromolecules.)
Series [5] can be described thus: Fraction unbound in Wistar Han rat brain homogenates at 1 uM after 6 hrs by equilibrium dialysis method. Particulars: brain homogenate.
Series [6] can be described thus: Fraction unbound in Beagle dog brain homogenates at 1 uM after 6 hrs by equilibrium dialysis method. Particulars: brain homogenate.
Series [7] in a line: Fraction unbound in human occipital cortex at 1 uM after 6 hrs by equilibrium dialysis method.

SMILES strings stand for the structures.

For orientation: fraction unbound means free concentration divided by total concentration. Regarding `Cc1c(C(=O)NN2CCCCC2)nn(-c2ccc(Cl)cc2Cl)c1-c1ccc(Cl)cc1` [RIMONABANT], the fraction unbound at 6 h, 1 µM in series [1] turned out to be 0.0006; in series [2], 0.0004; in series [3], 0.0004; in series [4], 0.0006; in series [5], 0.0004; in series [6], 0.0005. Moreover, in series [7], the unbound share (fraction unbound) at 6 h, 1 µM is 0.0005.

For the compound `CN1[C@@H]2CC[C@H]1C[C@@H](OC(=O)c1c[nH]c3ccccc13)C2` [TROPISETRON], the fraction unbound at 6 h, 1 µM is 0.045 in series [1]; 0.059 in series [2]; 0.048 in series [3]; 0.064 in series [4]; 0.056 in series [5]; 0.047 in series [6]. Further, the free fraction (fraction unbound) at 6 h, 1 µM in series [7] turned out to be 0.053.

As for `O=c1n(CCCN2CCN(c3cccc(Cl)c3)CC2)nc2ccccn12` [TRAZODONE], the fraction unbound at 6 h, 1 µM worked out at 0.062 in series [1]; 0.086 in series [2]; 0.059 in series [3]; 0.082 in series [4]; 0.085 in series [5]; 0.066 in series [6]. For the same compound, in series [7], the fraction unbound at 6 h, 1 µM was found to be 0.077.

As to `O=C(O[C@H]1CN2CCC1CC2)N1CCc2ccccc2[C@@H]1c1ccccc1` [SOLIFENACIN], the fraction unbound at 6 h, 1 µM in series [1] was 0.015; in series [2], 0.016; in series [3] it was 0.014; in series [4], 0.016; in series [5] it was 0.019; in series [6] it was 0.018. For the same compound, the fraction unbound at 6 h, 1 µM in series [7] is 0.017.

For the compound `CCCCCCCN(CC)CCCC(O)c1ccc(NS(C)(=O)=O)cc1` (stereo not given) [IBUTILIDE], the fraction unbound at 6 h, 1 µM in series [1] is 0.081; in series [2], 0.114; in series [3] it was 0.075; in series [4] it was 0.078; in series [5], 0.104; in series [6], 0.119. In series [7], this compound showed a fraction unbound at 6 h, 1 µM of 0.091.

As for `CNCCC=C1c2ccccc2CCc2ccccc21` [NORTRIPTYLINE], the fraction unbound at 6 h, 1 µM was found to be 0.005 in series [1]; 0.008 in series [2]; 0.006 in series [3]; 0.009 in series [4]; 0.007 in series [5]; 0.007 in series [6]. The fraction unbound at 6 h, 1 µM in series [7] worked out at 0.006.

For `CNCCCN1c2ccccc2CCc2ccccc21` [DESIPRAMINE], the fraction unbound at 6 h, 1 µM in series [1] worked out at 0.008; in series [2] it was 0.011; in series [3] it was 0.007; in series [4], 0.012; in series [5], 0.013; in series [6], 0.017. This compound displayed a fraction unbound at 6 h, 1 µM in series [7] of 0.011.

Take `CCN(C)C(=O)Oc1cccc([C@H](C)N(C)C)c1` [RIVASTIGMINE]: the fraction unbound at 6 h, 1 µM was found to be 0.241 in series [1]; 0.341 in series [2]; 0.389 in series [3]; 0.316 in series [4]; 0.338 in series [5]; 0.487 in series [6]. The unbound share (fraction unbound) at 6 h, 1 µM in series [7] was determined as 0.345.

As to `CN(C)CCCN1c2ccccc2Sc2ccc(Cl)cc21` [CHLORPROMAZINE], the fraction unbound at 6 h, 1 µM was found to be 0.002 in series [1]; 0.003 in series [2]; 0.003 in series [3]; 0.004 in series [4]; 0.003 in series [5]; 0.003 in series [6]. Besides, the fraction unbound at 6 h, 1 µM in series [7] was 0.003.

Take `CCCc1nc2c(C)cc(-c3nc4ccccc4n3C)cc2n1Cc1ccc(-c2ccccc2C(=O)O)cc1`: the fraction unbound at 6 h, 1 µM was 0.017 in series [1]; 0.01 in series [2]; 0.008 in series [3]; 0.013 in series [4]; 0.013 in series [5]; 0.011 in series [6]. The compound also came in with a fraction unbound at 6 h, 1 µM in series [7] of 0.014.

`CC(=O)CC(c1ccccc1)c1c(O)c2ccccc2oc1=O` (stereo not given) [WARFARIN]: the fraction unbound at 6 h, 1 µM in series [1] turned out to be 0.199; in series [2] it was 0.094; in series [3] it was 0.326; in series [4] it was 0.318; in series [5], 0.183; in series [6], 0.384. Besides, the fraction unbound at 6 h, 1 µM in series [7] is 0.295.

For `CN(C)CCCN1c2ccccc2CCc2ccc(Cl)cc21` [CLOMIPRAMINE], the fraction unbound at 6 h, 1 µM worked out at 0.003 in series [1]; 0.004 in series [2]; 0.003 in series [3]; 0.006 in series [4]; 0.004 in series [5]; 0.004 in series [6]. For the same compound, the fraction unbound at 6 h, 1 µM in series [7] was 0.004.

For the compound `O=C1CCc2ccc(OCCCCN3CCN(c4cccc(Cl)c4Cl)CC3)cc2N1` [ARIPIPRAZOLE], the free fraction (fraction unbound) at 6 h, 1 µM in series [1], in series [2], in series [3], in series [4], in series [5] and in series [6] was 0.001 in each case. This compound also came in with a fraction unbound at 6 h, 1 µM in series [7] of 0.002.

Take `CC(C)(C)NCC(O)COc1ccc(NC(=O)NC2CCCCC2)cc1` (stereo not given) [TALINOLOL]: the fraction unbound at 6 h, 1 µM in series [1] stood at 0.096; in series [2], 0.117; in series [3], 0.117; in series [4], 0.176; in series [5] it was 0.141; in series [6], 0.247. In series [7], this compound gave a fraction unbound at 6 h, 1 µM of 0.137.

Consider `CN(C)CCCC1(c2ccc(F)cc2)OCc2cc(C#N)ccc21` (stereo not given) [CITALOPRAM], for which the fraction unbound at 6 h, 1 µM in series [1] worked out at 0.03; in series [2], 0.06; in series [3], 0.038; in series [4], 0.061; in series [5] it was 0.05; in series [6], 0.057. This compound returned a fraction unbound at 6 h, 1 µM in series [7] of 0.047.

Regarding `CCN(CC)CCNC(=O)c1cc(Cl)c(N)cc1OC` [METOCLOPRAMIDE], the fraction unbound at 6 h, 1 µM worked out at 0.145 in series [1]; 0.23 in series [2]; 0.237 in series [3]; 0.413 in series [4]; 0.224 in series [5]; 0.294 in series [6]. In series [7], this compound came in with a fraction unbound at 6 h, 1 µM of 0.295.

In series [7], `CN[C@H]1CC[C@@H](c2ccc(Cl)c(Cl)c2)c2ccccc21` [SERTRALINE] had a free fraction (fraction unbound) at 6 h, 1 µM of 0.001.

`COc1ccc2c(c1)c(CC(=O)O)c(C)n2C(=O)c1ccc(Cl)cc1` [INDOMETHACIN]: the fraction unbound at 6 h, 1 µM in series [1] amounted to 0.028; in series [2], 0.052; in series [3], 0.044; in series [4], 0.053; in series [5] it was 0.044; in series [6] it was 0.035. The fraction unbound at 6 h, 1 µM in series [7] came to 0.055.

With `NC(=O)N1c2ccccc2C=Cc2ccccc21` [CARBAMAZEPINE], the fraction unbound at 6 h, 1 µM in series [1] was found to be 0.124; in series [2], 0.173; in series [3], 0.128; in series [4], 0.185; in series [5] it was 0.171; in series [6], 0.159. In series [7], this compound displayed a fraction unbound at 6 h, 1 µM of 0.171.

Consider `NC12CC3CC(CC(C3)C1)C2` [AMANTADINE], for which the fraction unbound at 6 h, 1 µM in series [1] came out at 0.147; in series [2], 0.181; in series [3], 0.178; in series [4], 0.1; in series [5] it was 0.213; in series [6], 0.218. In addition, the fraction unbound at 6 h, 1 µM in series [7] worked out at 0.171.

With `NC1CCN(c2c(F)cc3c(=O)c(C(=O)O)cn(C4CC4)c3c2Cl)C1` (stereo not given) [CLINAFLOXACIN], the unbound share (fraction unbound) at 6 h, 1 µM in series [1] turned out to be 0.435; in series [2], 0.377; in series [3] it was 0.167; in series [4], 0.139; in series [5], 0.148; in series [6], 0.398. Besides, the fraction unbound at 6 h, 1 µM in series [7] is 0.157.

As for `O=C1NC(=O)C(c2ccccc2)(c2ccccc2)N1` [PHENYTOIN], the fraction unbound at 6 h, 1 µM amounted to 0.134 in series [1]; 0.088 in series [2]; 0.082 in series [3]; 0.114 in series [4]; 0.1 in series [5]; 0.259 in series [6]. This compound also displayed a fraction unbound at 6 h, 1 µM in series [7] of 0.095.

As to `CN1CCCC(n2nc(Cc3ccc(Cl)cc3)c3ccccc3c2=O)CC1` (stereo not given) [AZELASTINE], the fraction unbound at 6 h, 1 µM worked out at 0.009 in series [1]; 0.012 in series [2]; 0.009 in series [3]; 0.014 in series [4]; 0.012 in series [5]; 0.011 in series [6].

Consider `CCCNC(=O)NS(=O)(=O)c1ccc(Cl)cc1` [CHLORPROPAMIDE], for which the free fraction (fraction unbound) at 6 h, 1 µM in series [1] worked out at 0.668; in series [2], 0.441; in series [3], 0.65; in series [4], 0.699; in series [5], 0.223; in series [7] it was 0.583.

These data come from ChEMBL document CHEMBL3525956, “Species independence in brain tissue binding using brain homogenates” (Drug Metab Dispos, 2011).
